{"source": "patent EP1482955B1", "about": "“PROPHYLACTIC AND THERAPEUTIC TREATMENT OF […] OTHER DISEASES WITH IMMU[…]” (CORIXA CORPORATION, priority 2002, dated 2003)", "key": {"[1]": {"test_system": "Influenza A/HK/68", "assay": "Protection against lethal influenza challenge by prophylactic intranasal administration", "type": "in vivo", "conditions": "BALB/c mice; for protection when compared with the vehicle control: 20 µg intranasally 48 hours prior to challenge (5 LD50), judged by survival, clinical symptoms and prevention of weight loss for 21 days; for survival rate: 20 µg intranasally 48 hours prior to lethal intranasal challenge (5 LD50), followed 21 days", "procedure": "This example provides experiments evaluating protection against a lethal challenge with influenza in cyclic AGP-treated mice. BALB/c mice (10 mice per group) were treated intranasally with 20 µg of the compounds of examples 1, 2 and 3, or with MPL, 48 hours prior to an lethal intranasal challenge of Influenza A/HK/68 (5 LD50). Protection was judged by survival, observations of clinical symptoms (ruffled fur, hunched posture and labored breathing), and prevention of weight loss for 21 days following the challenge."}, "[2]": {"test_system": "L. monocytogenes 10403 serotype", "assay": "Murine Listeria monocytogenes challenge model (induction of non-specific resistance)", "type": "in vivo", "conditions": "mice, 1 µg intravenously in 0.2% TEOA two days before intravenous challenge with ~10^5 L. monocytogenes; spleen CFUs two days after challenge", "procedure": "This example provides experiments evaluating the induction of non-specific resistance in the murine Listeria monocytogenes challenge model performed using the compounds prepared in examples 1, 2 and 3. Mice (5 per group) were treated intravenously with the 1 µg of a cyclic AGP or MPL solublized in 0.2% triethanolamine (TEOA). Two days later the mice were challenged intravenously with a ~10^5 L. monocytogenes 10403 serotype (stock culture provided by Jory Baldridge, Washington State University, Pullman, WA.). Two days after the challenge the mice were sacrificed and the number of colony forming units (CFUs) in the spleens of individual mice were determined by plating 10-fold serial dilutions of splenic homogenates on tryptic soy agar plates. The degree of protection afforded by a given AGP or MPL was calculated by subtracting the average number of bacteria per spleen (log10 value) in the group of mice treated with a given compound, from the average number of bacteria per spleen (log10 value) in a control group that was \"sham\" treated with vehicle (0.2% TEOA) prior to challenge with L. monocytogenes."}}}
{"molecule": "CCCCCCCCCCCC(=O)O[C@H](CCCCCCCCCCC)CC(=O)N[C@H]1[C@H](OC[C@@H]2CCCN2C(=O)C[C@@H](CCCCCCCCCCC)OC(=O)CCCCCCCCCCC)O[C@H](CO)[C@@H](OP(=O)(O)O)[C@@H]1OC(=O)C[C@@H](CCCCCCCCCCC)OC(=O)CCCCCCCCCCC.CCN(CC)CC", "note": "[Example 2, N-[(R)-3-Dodecanoyloxytetradecanoyl]-(S)-2-pyrrolidinylmethyl 2-Deoxy-4-O-phosphono-2-[(R)-3-dodecanoyloxy-tetradecanoylamino]-3-O-[(R)-3-dodecanoyloxytetradecanoyl]-β-D-glucopyranoside Triethylammonium Salt]", "values": [{"measurement": "protection when compared with the vehicle control", "setting": "[1]", "result": "enhanced protection"}, {"measurement": "survival rate", "setting": "[1]", "result": 40, "unit": "%"}, {"measurement": "protection (average number of bacteria per spleen, log10 value, vehicle control group minus treated group)", "setting": "[2]", "result": 0.7, "unit": "log 10 units"}]}
{"molecule": "CCCCCCCCCCC[C@H](CC(=O)N[C@H]1[C@H](OC[C@@H]2CCCN2C(=O)C[C@@H](CCCCCCCCCCC)OC(=O)CCCCCCCCC)O[C@H](CO)[C@@H](OP(=O)(O)O)[C@@H]1OC(=O)C[C@@H](CCCCCCCCCCC)OC(=O)CCCCCCCCC)OC(=O)CCCCCCCCC.CCN(CC)CC", "note": "[Example 3, N-[(R)-3-Decanoyloxytetradecanoyl]-(S)-2-pyrrolidinylmethyl 2-Deoxy-4-O-phosphono-2-[(R)-3-Decanoyloxytetradecanoylamino]-3-O-[(R)-3-Decanoyloxytetradecanoyl]-β-D-glucopyranoside Triethylammonium Salt]", "values": [{"measurement": "protection when compared with the vehicle control", "setting": "[1]", "result": "enhanced protection"}, {"measurement": "survival rate", "setting": "[1]", "result": 60, "unit": "%"}, {"measurement": "protection (average number of bacteria per spleen, log10 value, vehicle control group minus treated group)", "setting": "[2]", "result": "~ 0.9 log 10 units"}]}
{"molecule": "N-[(R)-3-Tetradecanoyloxytetradecanoyl]-(S)-2-pyrrolidinylmethyl 2-Deoxy-4-O-phosphono-2-[(R)-3-tetradecanoyloxytetradecanoylamino]-3-O-[(R)-3-tetradecanoyloxytetradecanoyl]-β-D-glucopyranoside Triethylammonium Salt [Example 1]", "values": [{"measurement": "survival rate", "setting": "[1]", "result": "No mice"}, {"measurement": "protection (average number of bacteria per spleen, log10 value, vehicle control group minus treated group)", "setting": "[2]", "result": 0.2, "unit": "log 10 units"}]}
